The structures appear in SMILES notation.

The values that follow come from patent US11833160B2, “Ursodeoxycholic acid derivatives as HDAC inhibitors for the treatment of polycystic diseases” (UNIVERSIDAD DEL PAIS VASCO/EUSKAL HERRIKO UNIBERTSITATEA, priority 2017, dated 2023).

In data set [1] the test system is normal human cholangiocytes (NHC3). Description: Primary cilium length (cilium staining, confocal microscopy), normal cells. Format: cell-based. Particulars: after treatment. The procedure:
Cilium staining. Cells cultured on cover slips were washed with PBS, fixed with methanol, and blocked for one hour in a blocking buffer at room temperature. The γ-tubulin primary antibodies (1:100; Sigma-Aldrich, St Louis, MO) and acetylated α-tubulin primary antibodies (1:1000; Sigma-Aldrich) or IFT88 primary antibodies (1:100; ProteinTech, Rosemont, IL, USA) were incubated overnight at 4° C. After washing, Alexa Fluor 594 and 488 secondary antibodies were combined with the primary antibodies (Life Technologies, Carlsbad, CA, USA) and incubated for 2 hours at room temperature. The cover slips were placed on slides with Prolong Gold Antifade with Dapi (Invitrogen, Carlsbad, CA, USA). The slides were observed and images were taken using laser scanning confocal microscopy with a 60× objective (NIKON C1si Confocal Spectral Imaging System, NIKON Instruments Co., Melville, NY, USA). The field was magnified 4× to observe individual cilia. The images were opened with EZ-C1 3.90 Freeviewer and a scale bar was added. The images were converted to Tiff files and quantified using ImageJ Software. The scale bar saved in the image was measured and the scale established. Using the freehand tool, the cilia were traced and measurements taken.

A further data set has as its target T1, ASBT (Homo sapiens, UniProt Q12908).
T1 construct: expressed in transfected cells
T1 sequence (Q12908 1-348): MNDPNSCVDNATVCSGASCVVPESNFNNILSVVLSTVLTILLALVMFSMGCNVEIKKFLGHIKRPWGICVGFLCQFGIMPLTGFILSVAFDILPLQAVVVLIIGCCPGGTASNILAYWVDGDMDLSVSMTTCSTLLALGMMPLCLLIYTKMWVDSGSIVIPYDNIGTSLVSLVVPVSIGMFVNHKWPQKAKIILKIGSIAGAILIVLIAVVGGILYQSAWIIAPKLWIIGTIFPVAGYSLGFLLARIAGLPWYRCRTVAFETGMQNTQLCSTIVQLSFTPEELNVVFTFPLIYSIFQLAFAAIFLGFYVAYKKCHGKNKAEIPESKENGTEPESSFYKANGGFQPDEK
Description: Uptake study, transporter ASBT (data not shown). Type of data set: in vitro ADME. The source says: The bile acid and organic cation transporters expressed in hepatocytes and cholangiocytes were overexpressed in HepG2 cells (OCT1) and CHO cells (OCT3). The efficacy of the process was confirmed by means of measuring the abundance of mRNA (qPCR), protein (WB), and the correct insertion in the plasma membrane (immunofluorescence). The uptake studies included comparing the uptake efficiency of the compound with respect to dihydroethidium (DHE) in the case of OCT3, and sorafenib in the case of OCT1 (positive controls), as well as the sensitivity of the process to substrate inhibition induced by the joint administration of the compound and quinine. The cell content of all the compounds was determined by means of triple quadrupole HPLC-MS/MS after extraction thereof from the cell system used in each case.

Another data set deals with T2, human HDAC4 (Homo sapiens, UniProt P56524).
T2 construct: amino acids 627-1085 with GST N-terminal tag, MW=75.2 kDa; GST (N); purchased BioMol, Hamburg, Germany; host or cells: baculovirus expression system
T2 sequence (P56524 627-1084 limits assumed): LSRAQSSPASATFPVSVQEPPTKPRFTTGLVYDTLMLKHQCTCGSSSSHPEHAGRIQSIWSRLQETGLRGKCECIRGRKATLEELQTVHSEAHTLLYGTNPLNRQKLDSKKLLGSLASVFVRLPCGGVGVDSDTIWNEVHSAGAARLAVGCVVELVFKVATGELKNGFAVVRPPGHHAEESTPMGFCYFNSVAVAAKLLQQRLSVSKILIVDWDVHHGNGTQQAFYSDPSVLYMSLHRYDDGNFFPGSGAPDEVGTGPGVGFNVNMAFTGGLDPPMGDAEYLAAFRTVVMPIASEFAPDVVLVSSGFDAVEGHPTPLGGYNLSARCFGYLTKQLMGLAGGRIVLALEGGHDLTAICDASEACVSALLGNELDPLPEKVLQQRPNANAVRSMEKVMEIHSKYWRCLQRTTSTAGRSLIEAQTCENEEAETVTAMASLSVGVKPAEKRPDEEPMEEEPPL
Nature of the data set: HDAC4 enzymatic activity assay (fluorogenic peptide). Format: biochemical. Particulars: 10-dose, 3-fold serial dilution, triplicate. The procedure: Peptide substrates: all HDAC assays were performed using acetylated peptide substrates labeled with 7-amino-4-methylcoumarin (AMC): • Substrate for isoforms HDAC1, 2, 3, 6, 10, 11, and HeLa nuclear extract assays: acetylated fluorogenic peptide from p53 residues 379-382 (RHKKAc). • Substrate for isoforms HDAC4, 5, 7, 9: fluorogenic Boc-L-Lys (s-trifluoroacetyl)-AMC. • Substrate for HDAC8 assays: acetylated fluorogenic peptide from p53 residues 379-382 (RHKAcKAc).
50 μl of peptide substrate (see “peptide substrates” section above) and an optimal concentration of the corresponding enzyme (see “enzymes” section above) in the assay buffer at a final DMSO concentration of 1% were incubated in the presence of gradient concentrations of inhibitors (10-dose IC50 mode with 3-fold serial dilution) at 30° C. for 2 hours. The reactions were carried out in a 96-well microplate for fluorometry in a 50 μl reaction volume. After the deacetylation reaction, Fluor-de-Lys-Developer (BioMol Cat. #KI-105) was added to each well to digest the deacetylated substrate, thereby producing the fluorescent signal. The reaction was carried out for 45 minutes at 30° C. with 5% CO2; the fluorescent signal was then measured using an excitation wavelength of 360 nm and an emission wavelength of 460 nm in a microplate-reading fluorometer (GeminiXS, Molecular Devices, Sunnyvale, CA). […]

For the molecule `C[C@H](CCC(=O)NCC(=O)NCc1ccc(C(=O)NO)cc1)[C@H]1CC[C@H]2[C@@H]3[C@@H](O)C[C@@H]4C[C@H](O)CC[C@]4(C)[C@H]3CC[C@]12C` [Ib, 4-((2-((R)-4 ((3R,5S,7S,8R,9S,10S,13R,14S,17R)-3,7-dihydroxy-10,13-dimethylhexadecahydro-1H-cyclopenta[a]phenanthren-17-yl)pentanamide)acetamido)methyl)-N-hydroxybenzamide], the melting point was 153 to 155 °C.

`C[C@H](CCC(=O)NCc1ccc(C(=O)NO)cc1)[C@H]1CC[C@H]2[C@@H]3[C@@H](O)C[C@@H]4C[C@H](O)CC[C@]4(C)[C@H]3CC[C@]12C` [Compound Ia]: the “length of the cilia, normal human cholangiocytes” value in data set [1] was “did not lead to any significant variations”. Moreover, on ASBT, the “transport through ASBT” value was “not through ASBT”. The IC50 against human HDAC4 was 16.5 µM.

By melting point is commonly meant the temperature of the solid-liquid transition. As usually defined, the IC50 is the concentration that gives 50% inhibition. The low end stands for higher potency, the high end for lower potency.
